# The supplement of paper PMC11208160
# Assay: recombinant UMI read abundance after kanamycin selection (control-corrected) (log10(CPM+1)); higher = more efficient recombination; extreme values may be limits of the assay; sequences stand for … in AGTGCAGAGAAAATCGGCCAGTTTTCTCTGCCTGCAGTCCGCATGCCGTGGGACCCCTTGGGTTCTAACCTGTTGCCTAGATTTATGCAGCGGACTGCCTTTCTCCCAAAGTGATAAACCGG…AGGTTGGTTTCACT; site = the 11-nt donor
# In short: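 Pooled Escherichia coli screen of donor and donor-binding-loop pairs for the IS621 bridge recombinase. Each pair sits with a 12-nt UMI on a plasmid carrying a promoterless kanamycin gene. The library was co-electroporated with a target plasmid encoding a fixed target and T7-inducible recombinase, then plated with IPTG (0.07 mM) plus kanamycin, or unselected, each in two replicates. Recombinant UMIs were PCR-amplified across the donor–target junction and sequenced. Counts became CPM, averaged over replicates, scaled by control-derived factors and reported as log10(CPM+1).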
row,Sequence,recombinant UMI read abundance (log10)
1,ATAAGGCCATGGACCGGTTTTCCCGGTAATCCGTATTTGAC (site ATCAGGCCTGT),0
2,ATAAGGCCATGGACCGGTTTTCCCGGTAATCCGTATTTGAC (site ATGAGGCCTGT),0
3,ATAAGGCCATGGACCGGTTTTCCCGGTAATCCGTATTTGAC (site ATTAGGCCTGT),0
4,ATAAGGCCATGGACCGGTTTTCCCGGTAATCCGTATTTGAC (site CTAAGGCCTGT),0
5,ATAAGGCCATGGACCGGTTTTCCCGGTAATCCGTATTTGAC (site GTAAGGCCTGT),0
6,ATAAGGCCATGGACCGGTTTTCCCGGTAATCCGTATTTGAC (site TTAAGGCCTGT),0
7,ATAAGGCCATGGACCGGTTTTCCCGGTAATCCGTATTTGCC (site ATAAGGCCTGA),0
8,ATAAGGCCATGGACCGGTTTTCCCGGTAATCCGTATTTGCC (site ATAAGGCCTGC),0
9,ATAAGGCCATGGACCGGTTTTCCCGGTAATCCGTATTTGCC (site ATAAGGCCTGG),1.07
10,ATAAGGCCATGGACCGGTTTTCCCGGTAATCCGTATTTGCC (site ATAAGGCCTGT),0
11,ATAAGTCCATGGACCGGTTTTCCCGGTAATCCGTATTTGAC (site ATAAGACCTGT),0
12,ATAAGTCCATGGACCGGTTTTCCCGGTAATCCGTATTTGAC (site ATAAGCCCTGT),0.569
13,ATAAGTCCATGGACCGGTTTTCCCGGTAATCCGTATTTGAC (site ATAAGGCCTGT),0.787
14,ATAAGTCCATGGACCGGTTTTCCCGGTAATCCGTATTTGAC (site ATAAGTCCTGT),2.13
15,ATAATCGCATGGACCGGTTTTCCCGGTAATCCGTATTTGGG (site ATAATCGCTCC),0.324
16,ATAGAGCCATGGACCGGTTTTCCCGGTAATCCGTATTTGAA (site ATAGAGCCTTT),0.525
17,ATAGCCTCATGGACCGGTTTTCCCGGTAATCCGTATTTGCG (site ATAGCCTCTCG),2.52
18,ATAGCGACATGGACCGGTTTTCCCGGTAATCCGTATTTGCG (site ATAGCGACTCG),2.61
19,ATAGCTGCATGGACCGGTTTTCCCGGTAATCCGTATTTGTG (site ATAGCTGCTCA),1.35
20,ATAGCTGCATGGACCGGTTTTCCCGGTAATCCGTATTTGTG (site CTAGCTGCTCA),0.647
21,ATAGCTGCATGGACCGGTTTTCCCGGTAATCCGTATTTGTG (site GTAGCTGCTCA),0.00767
22,ATAGCTGCATGGACCGGTTTTCCCGGTAATCCGTATTTGTG (site TTAGCTGCTCA),0.0149
23,ATAGGACCATGGACCGGTTTTCCCGGTAATCCGTATTTGCT (site ATAGGACCTAG),0

row,Sequence,recombinant UMI read abundance (log10)
1,ATAGTAACATGGACCGGTTTTCCCGGTAATCCGTATTTGAG (site ATAGTAACTCT),2.18
2,ATAGTACCATGGACCGGTTTTCCCGGTAATCCGTATTTGAC (site ATAGTACCTGT),0
3,ATAGTAGCATGGACCGGTTTTCCCGGTAATCCGTATTTGAC (site ATAGTAGCTGT),3.06
4,ATAGTAGCATGGACCGGTTTTCCCGGTAATCCGTATTTGAC (site CTAGTATCTGT),0
5,ATAGTATCATGGACCGGTTTTCCCGGTAATCCGTATTTGAA (site ATAGTATCTTT),3.09
6,ATAGTATCATGGACCGGTTTTCCCGGTAATCCGTATTTGAA (site CTAGTATCTGT),0.977
7,ATATAGGCATGGACCGGTTTTCCCGGTAATCCGTATTTGGC (site ATATAGGCTGC),2.39
8,ATATAGGCATGGACCGGTTTTCCCGGTAATCCGTATTTGGC (site ATCTAGGCTGC),1.31
9,ATATAGGCATGGACCGGTTTTCCCGGTAATCCGTATTTGGC (site ATGTAGGCTGC),1.08
10,ATATAGGCATGGACCGGTTTTCCCGGTAATCCGTATTTGGC (site ATTTAGGCTGC),0.00901
11,ATATATCCATGGACCGGTTTTCCCGGTAATCCGTATTTGGT (site ATATATCCTAC),0.648
12,ATATGCACATGGACCGGTTTTCCCGGTAATCCGTATTTGTA (site ATATGCACTTA),2.49
13,ATATGCACATGGACCGGTTTTCCCGGTAATCCGTATTTGTA (site CTATGCACTTA),0.913
14,ATATGCACATGGACCGGTTTTCCCGGTAATCCGTATTTGTA (site GTATGCACTTA),0.909
15,ATATGCACATGGACCGGTTTTCCCGGTAATCCGTATTTGTA (site TTATGCACTTA),1.66
16,ATATGGACATGGACCGGTTTTCCCGGTAATCCGTATTTGAC (site ATATGGACTGT),2.7
17,ATCAACTCATGGACCGGTTTTCCCGGTAATCCGTATTTGTG (site ATCAACTCTCA),2.13
18,ATCCACGCATGGACCGGTTTTCCCGGTAATCCGTATTTGAG (site ATCCAAGCTCT),0.00979
19,ATCCACGCATGGACCGGTTTTCCCGGTAATCCGTATTTGAG (site ATCCACGCTCT),0.817
20,ATCCACGCATGGACCGGTTTTCCCGGTAATCCGTATTTGAG (site ATCCAGGCTCT),0.0164
21,ATCCACGCATGGACCGGTTTTCCCGGTAATCCGTATTTGAG (site ATCCATGCTCT),0.00887
22,ATCCGAGCATGGACCGGTTTTCCCGGTAATCCGTATTTGAG (site ATCCAAGCTCT),0.696
23,ATCCGAGCATGGACCGGTTTTCCCGGTAATCCGTATTTGAG (site ATCCCAGCTCT),0.172

row,Sequence,recombinant UMI read abundance (log10)
1,ATCCGAGCATGGACCGGTTTTCCCGGTAATCCGTATTTGAG (site ATCCGAGCTCT),0.924
2,ATCCGAGCATGGACCGGTTTTCCCGGTAATCCGTATTTGAG (site ATCCTAGCTCT),0.0162
3,ATCCGATCATGGACCGGTTTTCCCGGTAATCCGTATTTGGT (site ATCCGATCTAC),0.721
4,ATCCTATCATGGACCGGTTTTCCCGGTAATCCGTATTTGAC (site ATCCTATCTGT),1.58
5,ATCCTGGCATGGACCGGTTTTCCCGGTAATCCGTATTTGAC (site ATCCTGGCTGT),0
6,ATCGATACATGGACCGGTTTTCCCGGTAATCCGTATTTGAC (site ATCAATACTGT),1.49
7,ATCGATACATGGACCGGTTTTCCCGGTAATCCGTATTTGAC (site ATCCATACTGT),0
8,ATCGATACATGGACCGGTTTTCCCGGTAATCCGTATTTGAC (site ATCGATACTGT),2.32
9,ATCGATACATGGACCGGTTTTCCCGGTAATCCGTATTTGAC (site ATCTATACTGT),0.652
10,ATCGTCACATGGACCGGTTTTCCCGGTAATCCGTATTTGCA (site ATCGTCACTTG),2.56
11,ATCGTTCCATGGACCGGTTTTCCCGGTAATCCGTATTTGTT (site ATCGTTCCTAA),0.568
12,ATCTAATCATGGACCGGTTTTCCCGGTAATCCGTATTTGGA (site ATCTAATCTTC),2.05
13,ATCTACACATGGACCGGTTTTCCCGGTAATCCGTATTTGCT (site ATCTACACTAG),2.26
14,ATCTACACATGGACCGGTTTTCCCGGTAATCCGTATTTGCT (site CTCTACACTAG),1.56
15,ATCTACACATGGACCGGTTTTCCCGGTAATCCGTATTTGCT (site GTCTACACTAG),1.41
16,ATCTACACATGGACCGGTTTTCCCGGTAATCCGTATTTGCT (site TTCTACACTAG),2.05
17,ATCTAGACATGGACCGGTTTTCCCGGTAATCCGTATTTGAC (site ATCTAAACTGT),2.21
18,ATCTAGACATGGACCGGTTTTCCCGGTAATCCGTATTTGAC (site ATCTACACTGT),0
19,ATCTAGACATGGACCGGTTTTCCCGGTAATCCGTATTTGAC (site ATCTAGACTGT),2.68
20,ATCTAGACATGGACCGGTTTTCCCGGTAATCCGTATTTGAC (site ATCTATACTGT),0
21,ATCTATCCATGGACCGGTTTTCCCGGTAATCCGTATTTGAC (site ATCTATACTGT),0
22,ATCTATCCATGGACCGGTTTTCCCGGTAATCCGTATTTGAC (site ATCTATCCTGT),0.991
